Measurements from ChEMBL document CHEMBL1240479, “Exploring benzcyclo derivatives as potent aromatase inhibitors using ligand-based modeling studies” (Eur J Med Chem, 2010).
pIC50: −log10 of the molar value.

Molecular target: T1, Aromatase (Homo sapiens, UniProt P11511)
T1 sequence (P11511 whole entry): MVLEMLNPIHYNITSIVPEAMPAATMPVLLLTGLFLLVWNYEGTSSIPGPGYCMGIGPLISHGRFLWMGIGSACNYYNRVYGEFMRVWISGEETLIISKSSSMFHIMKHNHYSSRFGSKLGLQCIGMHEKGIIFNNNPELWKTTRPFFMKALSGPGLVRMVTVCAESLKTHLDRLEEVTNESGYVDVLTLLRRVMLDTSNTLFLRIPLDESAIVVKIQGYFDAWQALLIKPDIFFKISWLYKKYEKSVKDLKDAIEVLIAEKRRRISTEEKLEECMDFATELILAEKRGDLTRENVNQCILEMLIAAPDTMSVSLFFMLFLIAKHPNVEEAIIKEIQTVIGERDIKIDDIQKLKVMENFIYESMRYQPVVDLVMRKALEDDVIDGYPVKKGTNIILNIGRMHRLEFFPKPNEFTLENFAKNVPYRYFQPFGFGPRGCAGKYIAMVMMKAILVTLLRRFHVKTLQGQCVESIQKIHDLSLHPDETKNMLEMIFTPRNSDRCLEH
Experiment: Inhibition of aromatase

SMILES	pIC50
Brc1ccc2c(c1)CC/C2=C/c1ccncc1	5.40
Brc1ccc2c(c1)CCC2=Cc1ccncc1	5.47
C(=C(c1ccccc1)c1ccccc1)c1cccnc1	5.43
